Like-named read-outs stand apart in the source and are kept apart here.
Key:
[1] = biological target: KRAS (WT)::SOS1 (Homo sapiens (Human), UniProt P01116, C118S); assay: KRAS::SOS1 AlphaScreen binding assay, KRAS WT
Description: This assay can be used to examine the potency with which compounds according to the invention binding to (mutated) KRAS inhibit the protein-protein interaction between SOS1 and (mutated) KRAS e.g., KRAS WT, KRAS G12C, KRAS G12D, KRAS G12V, KRAS G13D. […] Low IC50 values in this assay setting are indicative of strong inhibition of protein-protein interaction between SOS1 and KRAS:
These assays measure the inhibitory effect of compounds on KRAS mutant protein-protein interactions using the Alpha Screen technology by Perkin Elmer.
The following (mutant) enzyme forms of KRAS and interacting proteins are used in these assays at the given concentrations: • KRAS (G12D) 1-169, N-terminal 6His-tag, C-terminal avi-tag (Xtal BioStructures, Inc.); final assay concentration 10 nM and SOS1 564-1049, N-terminal 229 GST-tag, TEV cleavage site (Viva Biotech Ltd); final assay concentration 5 nM; • KRAS (G12C) 1-169, N-terminal 6His-tag for purification, cleaved off, C-terminal avi-tag, biotinylated, mutations: C51S, C80L, C118S (in house); final assay concentration 7.5 nM and SOS1 564-1049, N-terminal 229 GST-tag, TEV cleavage site (Viva Biotech Ltd); final assay concentration 5 nM; • KRAS (G12V) 1-169, N-terminal 6His-tag for purification, cleaved off, C-terminal avi-tag, biotinylated, TEV cleavage site, mutation: C118S, GDP loaded (in house); final assay concentration 10 nM and SOS1 564-1049, N-terminal 229 GST-tag, TEV cleavage site (Viva Biotech Ltd); final assay concentration 10 nM; • KRAS (G13D) 1-169, N-terminal 6His-tag for purification, cleaved off, C-terminal avi-tag, biotinylated, TEV cleavage site, mutation: C118S, GDP loaded (in house); final assay concentration 10 nM and SOS1 564-1049, N-terminal 229 GST-tag, TEV cleavage site (Viva Biotech Ltd); final assay concentration 10 nM; • KRAS (WT) 1-169, N-terminal 6His-tag for purification, cleaved off, C-terminal avi-tag, biotinylated, TEV cleavage site, mutation: C118S, GDP loaded (in house); final assay concentration 10 nM and SOS1 564-1049, N-terminal 229 GST-tag, TEV cleavage site (Viva Biotech Ltd); final assay concentration 10 nM.
Test compounds dissolved in DMSO are dispensed onto assay plates (Proxiplate 384 PLUS, white, PerkinElmer; 6008289) using an Access Labcyte Workstation with the Labcyte Echo 55×. For the chosen highest assay concentration of 100 μM, 150 nL of compound solution are transferred from a 10 mM DMSO compound stock solution. A series of eleven fivefold dilutions per compound are transferred to the assay plate, compound dilutions are tested in duplicates. DMSO are added as backfill to a total volume of 150 nL.
The assays run on a fully automated robotic system in a darkened room below 100 Lux. To 150 nl of compound dilution 10 μl of a mix including KRAS mutant protein, SOS1 (final assay concentrations see above) and GDP nucleotide (Sigma G7127; final assay concentration 10 μM) in assay buffer (1×PBS, 0.1% BSA, 0.05% Tween 20) are added into columns 1-24.
After 30 minutes incubation time 5 μl of Alpha Screen bead mix in assay buffer are added into columns 1-23. Bead mix consists of AlphaLISA Glutathione Acceptor Beads (PerkinElmer, Cat No AL109) and AlphaScreen Streptavidin Donor Beads (PerkinElmer Cat No 6760002) in assay buffer at a final assay concentration of 10 μg/ml each.
Plates are kept at room temperature in a darkened incubator. After an additional 60 minutes incubation time the signal is measured in a PerkinElmer Envision HTS Multilabel Reader using the AlphaScreen specs from PerkinElmer.
Each plate contains up to 16 wells of a negative control depending on the dilution procedure (platewise or serial) (DMSO instead of test compound; with KRAS mutant::SOS1 GDP mix and bead mix; column 23) and 16 wells of a positive control (DMSO instead of test compound; with KRAS mutant::SOS1 GDP mix w/o bead mix; column 24).
As internal control known inhibitors of KRAS mutant::SOS1 interaction can be measured on each compound plate. […]

[2] = system: MKN1 cells; assay: MKN1 CTG proliferation assay (120 h) (gastric cancer, wt amplified); format: cell-based
Method in brief: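 MKN1 gastric cancer cells (200–500 per well, RPMI + 10% FCS) given a logarithmic compound dose series and incubated 120 h. Viability by CellTiter-Glo luminescence as percent of DMSO controls. IC50 by four-parameter non-linear regression.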

[3] = biological target: CYP3A4 (Homo sapiens (Human), UniProt P08684); assay: Mechanism based inhibition of CYP3A4 assay (MBI 3A4); format: in vitro ADME; settings: hydroxy-midazolam formation after 30 min vs 0 min preincubation, 25 uM, human liver microsomes
Method in brief: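 Human CYP3A4 activity after 30 min vs 0 min preincubation with test compound; incubate then diluted 1:10 and midazolam added for a 15 min main incubation. Quenched with acetonitrile; hydroxy-midazolam quantified by LC/MS-MS and expressed as % of the 0 min preincubation formation.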

[4] = Homo sapiens, MKN-1, assay 2, CTG 120 h, read-out: MKN1 (assay 2) IC50
[5] = Homo sapiens, MKN-1, assay 3, CTG 120 h, read-out: MKN1 (assay 3) IC50
[6] = Homo sapiens, MKN-1, assay 1, CTG 120 h, read-out: MKN1 (assay 1) IC50

Sequence of KRAS (WT)::SOS1 (P01116 other isoform, or with tags, fused parts or gaps C118S): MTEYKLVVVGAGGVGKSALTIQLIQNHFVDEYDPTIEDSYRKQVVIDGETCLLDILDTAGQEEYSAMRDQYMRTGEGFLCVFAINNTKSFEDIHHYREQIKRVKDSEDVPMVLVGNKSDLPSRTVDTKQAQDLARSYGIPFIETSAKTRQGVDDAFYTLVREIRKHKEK
Sequence of CYP3A4 (P08684 whole entry): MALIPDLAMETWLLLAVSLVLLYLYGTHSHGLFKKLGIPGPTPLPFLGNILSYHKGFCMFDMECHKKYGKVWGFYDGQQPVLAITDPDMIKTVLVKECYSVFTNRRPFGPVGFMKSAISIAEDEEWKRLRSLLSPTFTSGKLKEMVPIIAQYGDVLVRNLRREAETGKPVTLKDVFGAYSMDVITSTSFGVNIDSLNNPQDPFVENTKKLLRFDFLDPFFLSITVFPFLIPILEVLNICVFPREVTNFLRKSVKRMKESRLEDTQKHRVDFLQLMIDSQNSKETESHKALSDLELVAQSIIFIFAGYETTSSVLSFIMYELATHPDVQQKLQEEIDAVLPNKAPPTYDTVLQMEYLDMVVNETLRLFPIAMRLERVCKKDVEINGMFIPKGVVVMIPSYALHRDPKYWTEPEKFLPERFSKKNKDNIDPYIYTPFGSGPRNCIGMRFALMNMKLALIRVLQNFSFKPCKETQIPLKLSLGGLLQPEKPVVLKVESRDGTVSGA

Row | IC50 [1] | IC50 [2, 4] | IC50 [2, 5] | MBI 3A4 [3] | IC50 [2, 6] | Compound | IC50 ([2]; assay 3, CTG 120 h, read-out: MKN1 (assay 3) IC50)
1 | 31 nM |  |  |  |  | C[C@H](Oc1nc(-c2noc3c2CCC[C@@]32CCCc3sc(N)c(C#N)c32)nc(N2CCN(C)C3(CC3)C2)c1Cl)[C@@H]1C[C@@H](F)CN1C [II-176] | 
2 | 7 nM |  |  | 63% |  | C[C@H](Oc1cc(N2CCN(C)C3(CC3)C2)nc(-c2noc3c2CCC[C@@]32CCCc3sc(N)c(C#N)c32)n1)[C@@H]1CCCN1C [II-171] | 
3 | 5 nM | 26 nM | 9 nM | 49% | 25 nM | C[C@H](Oc1cc(-n2ccc(C(=O)N[C@@H]3CCOC3)n2)nc(-c2noc3c2CCC[C@@]32CCCc3sc(N)c(C#N)c32)n1)[C@@H]1CCCN1C [II-192] | 
4 | 6 nM |  | 17 nM |  |  | CO[C@H]1CCN(C)[C@@H]1[C@H](C)Oc1cc(-n2ccc(C(=O)N[C@@H](C)c3ccccn3)n2)nc(-c2noc3c2CCC[C@@]32CCCc3sc(N)c(C#N)c32)n1 [II-196] | 
5 | 4 nM | 341 nM |  |  |  | C[C@H](Oc1cc(-n2cc3c(n2)CN(C)C3)nc(-c2noc3c2CCC[C@@]32CCCc3sc(N)c(C#N)c32)n1)[C@@H]1CCCN1C [II-174] | 
6 | 7 nM |  | 37 nM |  |  | C[C@H](Oc1cc(-n2ccc(-c3cn(C4CCOCC4)nn3)n2)nc(-c2noc3c2CCC[C@@]32CCCc3sc(N)c(C#N)c32)n1)[C@@H]1CCCN1C [II-210] | 
7 | 3 nM |  | 176 nM |  |  | C[C@H](Oc1cc(-n2cc3c(n2)CNC3)nc(-c2noc3c2CCC[C@@]32CCCc3sc(N)c(C#N)c32)n1)[C@@H]1CCCN1C [II-168] | 
8 | 3 nM |  | 22 nM | 56% |  | COCCNC(=O)c1ccn(-c2cc(O[C@@H](C)[C@@H]3CCCN3C)nc(-c3noc4c3CCC[C@@]43CCCc4sc(N)c(C#N)c43)n2)n1 [II-195] | 
9 | 4 nM |  | 18 nM |  | 19 nM | C[C@H](Oc1cc(-n2ccc(C3(O)COC3)n2)nc(-c2noc3c2CCC[C@@]32CCCc3sc(N)c(C#N)c32)n1)[C@@H]1CCCN1C [II-189] | 

Second part, the molecule before the results:

Row | Compound | IC50 [1] | IC50 [2, 4] | IC50 [2, 5] | MBI 3A4 [3] | IC50 [2, 6] | IC50 ([2]; assay 3, CTG 120 h, read-out: MKN1 (assay 3) IC50)
10 | C[C@H](Oc1nc(-c2noc3c2CCC[C@@]32CCCc3sc(N)c(C#N)c32)nc(N2CCNC3(CC3)C2)c1F)[C@@H]1C[C@@H](F)CN1C [II-155] | 4 nM | 284 nM | 633 nM |  |  | 
11 | C[C@H](Oc1cc(-n2cc(-c3cncs3)nn2)nc(-c2noc3c2CCC[C@@]32CCCc3sc(N)c(C#N)c32)n1)[C@@H]1CCCN1C [II-125] | 9 nM |  |  | 68% |  | 
12 | C[C@H](Oc1cc(-n2ccc(-c3cnccn3)n2)nc(-c2noc3c2CCC[C@@]32CCCc3sc(N)c(C#N)c32)n1)[C@@H]1CCCN1C [II-130] | 5 nM |  | 297 nM | 67% | 216 nM | 
13 | C[C@@H]1CN(c2nc(-c3noc4c3CCC[C@@]43CCCc4sc(N)c(C#N)c43)nc(O[C@@H](C)[C@@H]3C[C@@H](F)CN3C)c2F)CC2(CC2)N1 [II-158] | 4 nM |  |  |  |  | 
14 | C[C@H](Oc1nc(-c2noc3c2CCC[C@@]32CCCc3sc(N)c(C#N)c32)nc(N2CCNC3(CC3)C2)c1Cl)[C@@H]1C[C@@H](F)CN1C [II-156] | 6 nM |  |  |  |  | 
15 | C[C@H](Oc1cc(N2CCNC3(COC3)C2)nc(-c2noc3c2CCC[C@@]32CCCc3sc(N)c(C#N)c32)n1)[C@@H]1C[C@@H](F)CN1C [II-150] | 3 nM | 32 nM |  | 49% |  | 
16 | C[C@H](Oc1cc(N2CCN(C)C3(CCOC3)C2)nc(-c2noc3c2CCC[C@@]32CCCc3sc(N)c(C#N)c32)n1)[C@@H]1C[C@@H](F)CN1C (stereo partly shown) [II-151] | 8 nM |  |  |  |  | 
17 | C[C@H](Oc1cc(N2CCNC3(CC3)C2)nc(-c2noc3c2CCC[C@@]32CCCc3sc(N)c(C#N)c32)n1)[C@@H]1C[C@@H](F)CN1C [II-165] | 5 nM | 427 nM |  |  |  | 
18 | C[C@H](Oc1cc(N2CCN[C@@H](C)C2)nc(-c2noc3c2CCC[C@@]32CCCc3sc(N)c(C#N)c32)n1)[C@@H]1CCCN1C [II-162] | 8 nM |  | 411 nM | 84% |  | 
19 | CO[C@@H]1C[C@@H]([C@H](C)Oc2cc(N3CCN(C)C4(CC4)C3)nc(-c3noc4c3CCC[C@@]43CCCc4sc(N)c(C#N)c43)n2)N(C)C1 [II-152] | 14 nM |  |  |  |  | 
20 | C[C@H](Oc1nc(-c2noc3c2CCC[C@@]32CCCc3sc(N)c(C#N)c32)nc(N2C[C@H](C)NC3(CC3)C2)c1F)[C@@H]1C[C@@H](F)CN1C [II-157] | 5 nM |  |  |  |  | 
21 | C[C@H](Oc1cc(N2CCN(C)C3(CC3)C2)nc(-c2noc3c2CCC[C@@]32CCCc3sc(N)c(C#N)c32)n1)[C@@H]1C[C@@H](F)CN1C [II-149] | 12 nM | 467 nM |  | 42% |  | 
22 | C[C@H](Oc1cc(C2=CCNCC2)nc(-c2noc3c2CCC[C@@]32CCCc3sc(N)c(C#N)c32)n1)[C@@H]1CCCN1C [II-164] | 8 nM |  | 1070 nM |  |  | 
23 | C[C@H](Oc1cc(-n2cc3c(n2)CCN(C)C3)nc(-c2noc3c2CCC[C@@]32CCCc3sc(N)c(C#N)c32)n1)[C@@H]1CCCN1C [II-141] | 3 nM |  |  | 88% |  | 
24 | C[C@H](Oc1cc(-n2ccc(C(=O)N[C@H]3CCOC3)n2)nc(-c2noc3c2CCC[C@@]32CCCc3sc(N)c(C#N)c32)n1)[C@@H]1CCCN1C [II-193] | 6 nM |  |  | 61% |  | 17 nM
25 | C[C@H](Oc1cc(-c2cccc(C(N)=O)c2)nc(-c2noc3c2CCC[C@@]32CCCc3sc(N)c(C#N)c32)n1)[C@@H]1CCCN1C [II-133] | 8 nM |  | 391 nM |  |  | 
26 | C[C@H](Oc1cc(N2CCN(C)C3(COC3)C2)nc(-c2noc3c2CCC[C@@]32CCCc3sc(N)c(C#N)c32)n1)[C@@H]1C[C@@H](F)CN1C [II-148] | 5 nM |  |  | 55% |  | 

— patent publication US20240174690A1, “ANNULATED 2-AMINO-3-CYANO THIOPHENES AND DERIVATIVES FOR THE TREATMENT OF CANCER” (BOEHRINGER INGELHEIM INTERNATIONAL GMBH, priority 2021, published 2024)
